Assay results: PMC11247118 (CPT: Pharmacometrics & Systems Pharmacology, 2024)
Like-named read-outs stand apart in the source and are kept apart here.

What was measured:
[1] = test system: Patient bacterial isolates (Gram-positive); assay: MIC of vancomycin for patient bacterial isolates; type: cell-based; details: majority of clinical isolates of the two study institutions, broth microdilution
[2] = Population pharmacokinetic model; details: for CLp, typical value of apparent clearance / Vp, typical value of apparent volume of distribution: estimate (% standard error), SEM
Gram-positive bacteria = details: 29 of 180 cases with Gram-positive isolates detected
[3] = cited from earlier work
[4] = Therapeutic drug monitoring of serum vancomycin concentrations; details: serum TDM samples, SD
[5] = test system: Gram-positive bacteria / MRSA; details: cited from earlier work
[6] = cited from earlier work; remark: listed apart in the source
[7] = bootstrap of final model, 996/1000 runs successful

MIC values of clinical isolates [1]: ≤ 1 µg/mL
CLage>2, bootstrap median [2, 7]: 2.56 L/h
CLage≤2, bootstrap median [2, 7]: 1.97 L/h
Vd, bootstrap median [2, 7]: 22.2 L
CLp, typical value of apparent clearance ([2]; candidate Model I, 3/4 allometric model): 2.09 (4.3) L/h
Vp, typical value of apparent volume of distribution ([2]; candidate Model I): 40.9 (14.6) L
CLp, typical value of apparent clearance ([2]; candidate Model II, allometric model): 2.10 (4.0) L/h
Vp, typical value of apparent volume of distribution ([2]; candidate Model II): 23.8 (28.2) L
Vp, typical value of apparent volume of distribution ([2]; candidate Model III): 40.8 (14.5) L
Vp, typical value of apparent volume of distribution ([2]; candidate Model IV): 23.0 (25.5) L
CLp, typical value of apparent clearance ([2]; candidate Model V, BW-dependent exponent model): 2.30 (5.0) L/h
Vp, typical value of apparent volume of distribution ([2]; candidate Model V): 23.3 (27.1) L
CLp, typical value of apparent clearance ([2]; candidate Model VI, age-dependent exponent model): 2.42 (5.5) L/h
Vp, typical value of apparent volume of distribution ([2]; candidate Model VI): 22.7 (25.5) L
weight-adjusted typical CL ([2]; final PPK model, age >2 years old): 3.6 mL/min/kg
CLage>2, final model estimate ([2]; final PPK model, age >2 years old, typical value at BW 12 kg and CLcr 75 mL/min): 2.59 L/h
weight-adjusted typical CL ([2]; final PPK model, age ≤2 years old): 2.75 mL/min/kg
CLage≤2, final model estimate ([2]; final PPK model, age ≤2 years old, typical value at BW 12 kg and CLcr 75 mL/min): 1.98 L/h
Vd, final model estimate ([2]; final PPK model, typical value at BW 12 kg): 22.4 L
Vancomycin concentration, mean ± standard deviation ([4]; model validation dataset N = 67, 76 concentrations): 6.89 ± 2.63 mg/L
Vancomycin concentration, mean ± standard deviation ([4]; model-building dataset N1 = 210, 272 concentrations): 8.7 ± 6.0 mg/L
Vancomycin concentration, mean ± standard deviation ([4]; model-building dataset N2 = 176, 249 concentrations): 8.27 ± 5.85 mg/L
Vancomycin concentration, mean ± standard deviation ([4]; model-building dataset Total = 386, 521 concentrations): 8.52 ± 5.93 mg/L
SMILES: CN[C@H](CC(C)C)C(=O)N[C@H]1C(=O)N[C@@H](CC(N)=O)C(=O)N[C@H]2C(=O)N[C@H]3C(=O)N[C@H](C(=O)N[C@H](C(=O)O)c4cc(O)cc(O)c4-c4cc3ccc4O)[C@H](O)c3ccc(c(Cl)c3)Oc3cc2cc(c3O[C@@H]2O[C@H](CO)[C@@H](O)[C@H](O)[C@H]2O[C@H]2C[C@](C)(N)[C@H](O)[C@H](C)O2)Oc2ccc(cc2Cl)[C@H]1O [vancomycin]
treatment failure rate (Gram-positive bacteria): 16%
AUC0-24 threshold for predicting vancomycin-associated nephrotoxicity ([3]; Chinese children): < 537 µg·h/mL
AUC0-24 threshold for predicting vancomycin-associated nephrotoxicity ([3]; Chinese neonates): < 480 µg·h/mL
microbiological eradication rate ([5]; multicenter study, Chinese children, 37.79 ± 11.31 mg/kg/day): > 80%
overall clinical effective rate ([5]; pediatric patients with median AUC/MIC between 200 and 300, ref 40 (Shen et al.)): 92.6%
fraction eliminated by the renal system and excreted in the urine as a prototype ([6]; after intravenous administration): approximately 90%
inter-individual variability (IIV) of clearance (CL) ([6]; reported to reach as high as): ≤ 99.2%
known range of weight-adjusted CL in pediatric patients ([6]; summarized in a systematic review): 0.258 to 4.25 mL/min/kg
